How the values were obtained:
[1] = biological target: NDM-1 (Klebsiella pneumoniae, UniProt C7C422); experiment: biochemical; type: biochemical; settings: CCF2-FA substrate, 2 hours at 25° C; read-out: NDM-1 IC50
In short: (§1)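 Class B activity is measured in the presence of compound by fluorescence with CCF2-FA after a 2-hour incubation at 25° C. IC50 is taken from a 4-parameter fit of semi-logarithmic dose-response data.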

[2] = biological target: IMP-1 (Serratia marcescens, UniProt P52699); experiment: biochemical; type: biochemical; settings: CCF2-FA substrate, 2 hours at 25° C; read-out: IMP-1 IC50
Chain of IMP-1 (P52699 whole entry, looked up, species assumed): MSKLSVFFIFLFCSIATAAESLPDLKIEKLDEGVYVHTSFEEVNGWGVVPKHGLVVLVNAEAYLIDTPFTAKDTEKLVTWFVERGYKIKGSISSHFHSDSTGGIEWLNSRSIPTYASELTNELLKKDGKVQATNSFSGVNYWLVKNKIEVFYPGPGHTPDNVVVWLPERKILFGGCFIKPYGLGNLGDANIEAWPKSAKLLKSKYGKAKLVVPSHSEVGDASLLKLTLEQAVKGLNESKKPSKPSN
In short: as §1

[3] = biological target: VIM-1 (Pseudomonas aeruginosa (strain ATCC 15692 / DSM 22644 / CIP 104116 / JCM 14847 / LMG 12228 / 1C / PRS 101 / PAO1), UniProt A0A0F7KYQ8); experiment: biochemical; settings: CCF2-FA substrate, 2 hours at 25° C
In short: as §1

[4] = system: P. aeruginosa expressing IMP-1, efflux+ (MB9798); type: cell-based, Pseudomonas aeruginosa; settings: for P. aeruginosa expressing IMP-1, efflux+ (MB9798) MITC95: imipenem at 2 μg/mL, in the presence of a class A, C, D serine β-lactamase inhibitor closely related to relebactam; for Efflux ratio: ratio MITC95 PA_9798/MITC95 PA_9799
Source text: (§2) The strain background is Pseudomonas aeruginosa PAO1.

[5] = system: P. aeruginosa expressing IMP-1, efflux− (MB9799); experiment: Efflux: concentration of MBL inhibitor which restores susceptibility to imipenem; type: cell-based, Pseudomonas aeruginosa; settings: imipenem at 2 μg/mL, in the presence of a class A, C, D serine β-lactamase inhibitor closely related to relebactam
Source text: as §2

[6] = system: Serratia marcescens expressing IMP-1 (CL5741); type: cell-based; settings: with imipenem 1 μg/ml; 95% inhibition of bacterial growth
In short: (§3)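 Clinical strains grown overnight on blood agar, then diluted 1:100 in 1.1× CAMHB and exposed to test compound with imipenem at 1 μg/ml. Incubation was 22–24 h at 35° C; growth was read by absorbance to find the compound concentration restoring imipenem susceptibility.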

[7] = system: Escherichia coli expressing NDM-1 (CLB30005, CLB30016); type: cell-based; settings: with imipenem 1 μg/ml; 95% inhibition of bacterial growth
In short: as §3

[8] = system: Klebsiella pneumoniae expressing VIM-1 (IHMA599644); type: cell-based; settings: with imipenem 1 μg/ml; 95% inhibition of bacterial growth
In short: as §3

Chain of NDM-1 (C7C422 whole entry, looked up, species assumed): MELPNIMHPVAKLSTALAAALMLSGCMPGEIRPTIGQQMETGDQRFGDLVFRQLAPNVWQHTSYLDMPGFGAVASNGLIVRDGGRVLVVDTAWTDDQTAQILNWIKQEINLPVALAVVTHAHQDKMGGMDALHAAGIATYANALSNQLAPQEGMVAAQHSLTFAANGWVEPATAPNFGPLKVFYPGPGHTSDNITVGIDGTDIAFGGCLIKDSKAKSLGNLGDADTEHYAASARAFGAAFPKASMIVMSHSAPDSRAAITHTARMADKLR

Compound	IC50 [1]	IC50 [2]	IC50 [3]	P. aeruginosa expressing IMP-1, efflux+ (MB9798) MITC95 [4]	Efflux ratio [4]	P. aeruginosa expressing IMP-1, efflux− (MB9799) MITC95 [5]	Serratia marcescens expressing IMP-1 (CL5741) MITC95 [6]	Escherichia coli expressing NDM-1 (CLB30016) MITC95 [7]	Klebsiella pneumoniae expressing VIM-1 (IHMA599644) MITC95 [8]
NCCS(=O)(=O)c1ccc(-c2cccc3sc(CN)nc23)c(-c2nn[nH]n2)c1S(N)(=O)=O [Example 87, 6-(2-aminoethylsulfonyl)-3-(2-(aminomethyl)benzo[d]thiazol-4-yl)-2-(2H-tetrazol-5-yl)benzenesulfonamide]	0.475 nM	0.562 nM	0.133 nM	0.7813 µM	2.00	0.3906 µM	0.7813 µM	0.7813 µM	0.7813 µM
NCCS(=O)(=O)c1ccc(-c2cccc3sc(C(=O)O)nc23)c(-c2nn[nH]n2)c1S(N)(=O)=O [Example 88, 4-(4-(2-aminoethylsulfonyl)-3-sulfamoyl-2-(2H-tetrazol-5-yl)phenyl)benzo[d]thiazole-2-carboxylic acid]	0.0522 nM	0.144 nM	0.158 nM	6.25 µM	2.00	3.125 µM	6.25 µM	1.563 µM	12.5 µM
NCCS(=O)(=O)c1ccc(-c2cccc3sc(C(N)=O)nc23)c(-c2nn[nH]n2)c1S(N)(=O)=O [Example 89, 4-(4-(2-aminoethylsulfonyl)-3-sulfamoyl-2-(2H-tetrazol-5-yl)phenyl)benzo[d]thiazole-2-carboxamide]	0.277 nM	0.601 nM	0.152 nM	3.125 µM	2.00	1.563 µM	1.563 µM	1.563 µM	3.125 µM
CNc1nc2c(-c3ccc(S(=O)(=O)CCN)c(S(N)(=O)=O)c3-c3nn[nH]n3)cccc2s1 [Example 90, 6-(2-aminoethylsulfonyl)-3-(2-(methylamino)benzo[d]thiazol-4-yl)-2-(2H-tetrazol-5-yl)benzene sulfonamide]	0.0746 nM	0.0995 nM	0.146 nM	1.563 µM	2.00	0.7813 µM	1.563 µM	0.7813 µM	1.563 µM
NCCS(=O)(=O)c1ccc(-c2cccc3[nH]c(C(=O)O)nc23)c(-c2nn[nH]n2)c1S(N)(=O)=O [Example 91, 4-(4-((2-aminoethyl)sulfonyl)-3-sulfamoyl-2-(2H-tetrazol-5-yl)phenyl)-1H-benzo[d]imidazole-2-carboxylic Acid]	0.189 nM	0.386 nM	0.239 nM	0.7813 µM	1.00	0.7813 µM	1.563 µM	1.172 µM	2.344 µM
C[C@H](N)CS(=O)(=O)c1ccc(-c2cccc3[nH]c(N)nc23)c(-c2nn[nH]n2)c1S(N)(=O)=O [Example 92, 3-(2-amino-1H-benzo[d]imidazol-4-yl)-6-((S)-2-aminopropylsulfonyl)-2-(2H-tetrazol-5-yl)benzenesulfonamide]	0.141 nM	0.612 nM	0.223 nM	0.4777 µM	0.81	0.5893 µM	0.6406 µM	0.2969 µM	0.8542 µM

Source: US10227331B2 (priority 2015, dated 2019)
